Test results published in patent US7417041B2, “Imidazopyrimidines as transforming growth factor (TGF) inhibitors” (Pfizer Inc., priority 2003, dated 2008).

Molecular target: T1, TβRI (Homo sapiens, UniProt P36897)
T1 construct: using either the kinase domain of ALK5 with Smad3 as substrate; GST
T1 sequence (P36897 205-495 limits assumed): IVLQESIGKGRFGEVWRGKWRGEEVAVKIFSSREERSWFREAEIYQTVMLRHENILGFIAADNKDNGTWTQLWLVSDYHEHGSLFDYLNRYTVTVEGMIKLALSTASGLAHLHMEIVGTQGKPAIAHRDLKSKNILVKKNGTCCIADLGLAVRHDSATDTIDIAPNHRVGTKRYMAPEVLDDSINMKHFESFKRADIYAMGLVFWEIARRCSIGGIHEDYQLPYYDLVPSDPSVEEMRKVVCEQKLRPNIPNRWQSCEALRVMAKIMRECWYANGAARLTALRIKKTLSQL
Assay: ALK-5 (TβRI) kinase assay
Assay type: biochemical
Details: read-out: in vitro IC50 value against TβRI
Experimental: ALK-5 (TβRI) Kinase Assay Protocol
The kinase assays were performed with 65 nM GST-ALK5 and 84 nM GST-Smad3 in 50 mM HEPES, 5 mM MgCl2, 1 mM CaCl2, 1 mM dithiothreitol, and 3_M ATP. Reactions were incubated with 0.5_Ci of [33 P]ATP for 3 h at 30° C. Phosphorylated protein was captured on P-81 paper (Whatman, Maidstone, England), washed with 0.5% phosphoric acid, and counted by liquid scintillation. Alternatively, Smad3 or Smad1 protein was also coated onto FlashPlate Sterile Basic Microplates (PerkinElmer Life Sciences, Boston, Mass.). Kinase assays were then performed in Flash-Plates with same assay conditions using either the kinase domain of ALK5 with Smad3 as substrate or the kinase domain of ALK6 (BMP receptor) with Smad1 as substrate. Plates were washed three times with phosphate buffer and counted by TopCount (Packard Bio-science, Meriden, Conn.). (Laping, N. J. et al. Molecular Pharmacology 62:58-64 (2002)).

SMILES: Cc1cccc(-c2c(-c3ccc4nnn(C)c4c3)nc3ncccn23)n1 [Example 15, 1-Methyl-6-[3-(6-methyl-pyridin-2-yl)-imidazo[1,2-a]pyrimidin-2-yl]-1H-benzotriazole]
- IC50: 253 nM
